In patent US11214594B2, “Antimicrobial peptide having synergistic antibacterial effect with antibiotics on multidrug resistant bacteria, and use thereof” (priority 2016, dated 2022):
≈ marks a conversion by molar mass, not a printed value. Read-outs that look alike come from different tables or passages of the source. Where a SMILES comes first, the peptide text is derived from it.

How the values were obtained:
[1] = system: A. baumannii; assay: microbe, parasite or virus in culture; format: cell-based, Acinetobacter baumannii
Procedure, shortened: (§1)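 Broth microdilution in MH medium: strains diluted to 2×10^6 CFU were mixed with equal volumes of twofold serial peptide dilutions in MH medium. MIC was taken as the lowest peptide concentration preventing bacterial growth.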

[2] = system: MDRAB 12035; assay: microbe, parasite or virus in culture; format: cell-based, Acinetobacter baumannii
Procedure, shortened: as §1

[3] = system: gram-negative bacteria; assay: MIC, summary statements for gram-negative bacteria; format: cell-based; conditions: gram-negative bacteria
Description: For the antibacterial activity, a minimal inhibitory concentration (MIC) of a peptide in which fungus bodies were not split in an MH medium with sufficient nutrients was measured.
Specifically, the strains described in the following [Table 2] were purchased and diluted with an MH medium such that the number of bacteria was 2×10^6 colony-forming units (CFUs), 100 μl of each of the diluted strains was aliquoted into a 96-well microtiter plate, and then 100 μl of a peptide solution diluted with the MH medium (solution diluted stepwise at 2: 1) was added to each well.

[4] = system: A. baumannii; assay: MIC of antimicrobial peptide during combined treatment with antibiotic; format: cell-based, Acinetobacter baumannii
Procedure, shortened: (§2)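 Strains in MH medium at 2×10^6 CFU/ml were mixed with peptide diluted stepwise (2:1) from its MIC, then antibiotic dilutions in MH medium were added to give the antibiotic MIC. The reversed set-up, peptide titrated against fixed antibiotic, gave the peptide MIC.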

[5] = system: MDRAB 12035; assay: as above; format: cell-based, Acinetobacter baumannii
Procedure, shortened: as §2

[6] = system: S. typhimurium; assay: microbe, parasite or virus in culture; format: cell-based, Salmonella typhimurium
Procedure, shortened: as §1

[7] = system: E. coli; format: cell-based, Escherichia coli; conditions: E. coli
Procedure, shortened: as §2

[8] = system: MDREC 1229; format: cell-based, Escherichia coli
Procedure, shortened: as §2

[9] = system: MDRST 8009; format: cell-based, Salmonella typhimurium; conditions: agent alone
Procedure, shortened: as §1

[10] = system: MDRAB 12036; format: cell-based, Acinetobacter baumannii
Procedure, shortened: as §1

[11] = erythromycin 4 μg/ml (Conc./MIC 1/8)
[12] = erythromycin 8 μg/ml (Conc./MIC 1/4)
[13] = erythromycin 16 μg/ml (Conc./MIC 1/2)
[14] = erythromycin 32 μg/ml (Conc./MIC 1)
[15] = vancomycin 512 μg/ml (Conc./MIC 1/2)
[16] = vancomycin 1024 μg/ml (Conc./MIC 1)
[17] = with Erythromycin […] (Conc./MIC 1)

**Q.** What does the source list for CC[C@H](C)[C@H](NC(=O)[C@H](CCCCN)NC(=O)[C@H](Cc1c[nH]c2ccccc12)NC(=O)[C@@H](N)CCCNC(=N)N)C(=O)N[C@@H](Cc1ccccc1)C(=O)N[C@@H](CCCCN)C(=O)N[C@@H](CCCCN)C(=O)N[C@H](C(=O)N1CCC[C@H]1C(=O)N[C@@H](CCCCN)C(=O)N[C@@H](Cc1ccccc1)C(=O)N[C@@H](CC(C)C)C(=O)N[C@@H](Cc1c[nH]cn1)C(=O)N[C@@H](CO)C(=O)N[C@@H](Cc1c[nH]c2ccccc12)C(=O)N[C@@H](CCCCN)C(=O)N[C@@H](CCCCN)C(=O)N[C@@H](Cc1ccccc1)C(N)=O)[C@@H](C)CC [PapMA-3, RWK IFK KIP KFL HSW KKF-NH2] (H-RWKIFKKIPKFLHSWKKF-NH2; N-terminus assumed)?
**A.** Minimal inhibitory concentration MIC [1]: 16 µg/mL (≈ 6.62 µM); Peptide MIC, peptide alone [1]: 16 µg/mL; Antibacterial activity relative to PapMA-1 ([1]; A. baumannii and antibiotic-resistant strains thereof): 4 times; Minimal inhibitory concentration MIC [2]: 16 µg/mL (≈ 6.62 µM); Peptide MIC, peptide alone [2]: 16 µg/mL; Antibacterial activity (in words) [3]: comparable to papiliocin or melittin; Peptide MIC during treatment with antibiotic [4, 11]: 4 µg/mL; Peptide MIC during treatment with antibiotic [4, 12]: 4 µg/mL; Peptide MIC during treatment with antibiotic [4, 13]: 2 µg/mL; Peptide MIC during treatment with antibiotic [4, 14]: 0 µg/mL; Peptide MIC during treatment with antibiotic ([4]; linezolid 32 μg/ml (Conc./MIC 1/8)): 4 µg/mL; Peptide MIC during treatment with antibiotic ([4]; linezolid 64 μg/ml (Conc./MIC 1/4)): 2 µg/mL; Peptide MIC during treatment with antibiotic ([4]; linezolid […] (Conc./MIC 1)): 0 µg/mL; Peptide MIC during treatment with antibiotic ([4]; linezolid […] (Conc./MIC 1/2)): 1 µg/mL; Peptide MIC during treatment with antibiotic [4, 15]: 0.25 µg/mL; Peptide MIC during treatment with antibiotic [4, 16]: 0 µg/mL; Peptide MIC during treatment with antibiotic ([4]; vancomycin […] (Conc./MIC 1/4)): 0.25 µg/mL; Peptide MIC during treatment with antibiotic ([4]; vancomycin […] (Conc./MIC 1/8)): 2 µg/mL; Peptide MIC during treatment with erythromycin [5, 11]: 4 µg/mL; Peptide MIC during treatment with erythromycin [5, 12]: 4 µg/mL; Peptide MIC during treatment with erythromycin [5, 13]: 2 µg/mL; Peptide MIC during treatment with erythromycin [5, 14]: 0 µg/mL; Peptide MIC during treatment with linezolid ([5]; linezolid 64 μg/ml (Conc./MIC 1/8)): 4 µg/mL; Peptide MIC during treatment with linezolid ([5]; linezolid 512 μg/ml (Conc./MIC 1)): 0 µg/mL; Peptide MIC during treatment with linezolid ([5]; linezolid […] (Conc./MIC 1/2)): 1 µg/mL; Peptide MIC during treatment with linezolid ([5]; linezolid […] (Conc./MIC 1/4)): 2 µg/mL; Peptide MIC during treatment with vancomycin [5, 15]: 2 µg/mL; Peptide MIC during treatment with vancomycin [5, 16]: 0.25 µg/mL; Peptide MIC during treatment with vancomycin ([5]; vancomycin […] (Conc./MIC 1/4)): 2 µg/mL; Peptide MIC during treatment with vancomycin ([5]; vancomycin […] (Conc./MIC 1/8)): 4 µg/mL; Minimal inhibitory concentration MIC [6]: 32 µg/mL (≈ 13.2 µM); Peptide MIC [7, 17]: 0 µg/mL; Peptide MIC ([7]; with Linezolid […] (Conc./MIC 1)): 0 µg/mL; Peptide MIC ([7]; with Vancomycin 1024 μg/ml (Conc./MIC 1)): 0 µg/mL; Peptide MIC [8, 17]: 0 µg/mL; Peptide MIC ([8]; with Linezolid 512 μg/ml (Conc./MIC 1)): 0 µg/mL; Minimal inhibitory concentration MIC [9]: 64 µg/mL (≈ 26.5 µM); Minimal inhibitory concentration MIC [10]: 16 µg/mL (≈ 6.62 µM)
